Among the data in patent publication US11787785B2 (NOVARTIS AG, priority 2021, dated 2023) are Dmax, remaining activity and DC50 values, retold here.

The experiment addresses T1, WIZ protein (HiBit-WIZ fusion protein) (Homo sapiens, UniProt O95785+Q96SW2).
T1 construct: expressed in transfected cells
The experiment in a line: Quantification of WIZ protein levels in HiBit tag fusion protein assay (WIZ HiBit assay in 293T cells). Format: cell-based. The conditions noted are these: for Dmax at 25 µM / remaining activity at 25 µM: HEK-293T, 293T cells; for Dmax at 25 µM: 100 − Amax, read-out: % degradation of WIZ (100 − Amax); for remaining activity at 25 µM: DMSO-normalized, curve-fitted percentage of WIZ-HiBit remaining at 25 uM, read-out: WIZ Amax; for DC50: WIZ HiBit assay in 293T cells, 10-point, 5-fold dose response, highest concentration 25 μM, about 18 hours, read-out: WIZ AC50. Put shortly:
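HiBit-tagged WIZ (N-terminal tag, HSVTK promoter) stably expressed single-copy in 293T cells; 10-point 1:5 compound series, top 25 μM, ~18 h at 37 °C. Lytic HiBit/LgBit luminescence read; Amax = curve-fitted % WIZ-HiBit remaining at 25 μM, DMSO normalized to 100%.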
(In general: The HiBiT peptide binds its large partner to form an active luciferase.)

T1 sequence (O95785 whole entry, the tested form may be a part): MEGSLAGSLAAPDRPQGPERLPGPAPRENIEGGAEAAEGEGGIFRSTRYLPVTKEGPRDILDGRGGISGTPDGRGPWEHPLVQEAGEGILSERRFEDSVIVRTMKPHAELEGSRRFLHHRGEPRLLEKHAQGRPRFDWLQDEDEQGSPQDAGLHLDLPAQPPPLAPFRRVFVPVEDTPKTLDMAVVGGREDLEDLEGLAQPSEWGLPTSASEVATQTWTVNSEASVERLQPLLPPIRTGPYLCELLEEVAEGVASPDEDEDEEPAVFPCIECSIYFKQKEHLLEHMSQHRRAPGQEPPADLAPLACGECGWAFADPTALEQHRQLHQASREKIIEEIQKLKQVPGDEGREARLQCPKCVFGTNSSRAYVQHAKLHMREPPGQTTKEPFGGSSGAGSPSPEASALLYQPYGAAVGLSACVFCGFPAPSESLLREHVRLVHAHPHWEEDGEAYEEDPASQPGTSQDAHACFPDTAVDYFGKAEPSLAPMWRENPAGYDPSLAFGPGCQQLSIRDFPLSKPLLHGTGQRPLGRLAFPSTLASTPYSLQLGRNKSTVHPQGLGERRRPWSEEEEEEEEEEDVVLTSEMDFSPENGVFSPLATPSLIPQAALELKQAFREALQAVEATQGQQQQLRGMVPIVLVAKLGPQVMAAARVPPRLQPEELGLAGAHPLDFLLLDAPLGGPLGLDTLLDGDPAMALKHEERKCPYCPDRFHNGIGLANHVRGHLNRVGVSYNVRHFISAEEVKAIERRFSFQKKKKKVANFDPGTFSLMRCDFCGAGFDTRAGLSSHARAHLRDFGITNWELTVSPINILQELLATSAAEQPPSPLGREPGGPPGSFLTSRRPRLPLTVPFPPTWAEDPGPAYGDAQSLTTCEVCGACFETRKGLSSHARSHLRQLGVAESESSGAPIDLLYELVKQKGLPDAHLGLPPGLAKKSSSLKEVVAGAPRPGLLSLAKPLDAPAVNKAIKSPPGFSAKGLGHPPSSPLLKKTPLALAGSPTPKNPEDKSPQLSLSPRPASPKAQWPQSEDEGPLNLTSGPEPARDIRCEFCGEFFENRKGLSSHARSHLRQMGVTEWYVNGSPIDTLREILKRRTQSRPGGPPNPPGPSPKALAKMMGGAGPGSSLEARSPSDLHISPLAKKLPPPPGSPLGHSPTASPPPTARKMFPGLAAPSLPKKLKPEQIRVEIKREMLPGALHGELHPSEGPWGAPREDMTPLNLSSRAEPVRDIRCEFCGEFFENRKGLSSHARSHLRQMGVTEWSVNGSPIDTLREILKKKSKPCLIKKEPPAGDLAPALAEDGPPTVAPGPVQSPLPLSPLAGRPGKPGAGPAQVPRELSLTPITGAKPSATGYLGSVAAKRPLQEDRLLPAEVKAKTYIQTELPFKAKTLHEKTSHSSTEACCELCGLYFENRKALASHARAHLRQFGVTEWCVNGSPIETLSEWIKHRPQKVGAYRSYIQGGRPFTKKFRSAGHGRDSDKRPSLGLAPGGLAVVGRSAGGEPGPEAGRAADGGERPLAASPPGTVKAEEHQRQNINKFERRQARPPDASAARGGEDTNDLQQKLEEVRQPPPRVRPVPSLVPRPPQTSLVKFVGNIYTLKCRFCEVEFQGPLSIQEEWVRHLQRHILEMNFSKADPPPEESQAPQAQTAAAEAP
T1 sequence (Q96SW2 whole entry, the tested form may be a part): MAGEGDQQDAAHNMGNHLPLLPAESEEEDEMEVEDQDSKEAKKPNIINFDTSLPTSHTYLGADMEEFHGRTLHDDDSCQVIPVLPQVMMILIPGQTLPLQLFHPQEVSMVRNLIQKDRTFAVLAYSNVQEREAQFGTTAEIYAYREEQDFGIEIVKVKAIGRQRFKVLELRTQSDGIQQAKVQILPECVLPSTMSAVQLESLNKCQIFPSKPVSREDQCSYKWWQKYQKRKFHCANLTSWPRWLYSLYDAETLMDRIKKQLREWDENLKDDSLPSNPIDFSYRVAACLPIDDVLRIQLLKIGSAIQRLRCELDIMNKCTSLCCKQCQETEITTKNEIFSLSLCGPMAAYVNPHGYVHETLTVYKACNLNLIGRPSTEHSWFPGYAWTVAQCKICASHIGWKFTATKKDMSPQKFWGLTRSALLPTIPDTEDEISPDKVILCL
T1 sequence (Q16531 whole entry partner, the tested form may be a part): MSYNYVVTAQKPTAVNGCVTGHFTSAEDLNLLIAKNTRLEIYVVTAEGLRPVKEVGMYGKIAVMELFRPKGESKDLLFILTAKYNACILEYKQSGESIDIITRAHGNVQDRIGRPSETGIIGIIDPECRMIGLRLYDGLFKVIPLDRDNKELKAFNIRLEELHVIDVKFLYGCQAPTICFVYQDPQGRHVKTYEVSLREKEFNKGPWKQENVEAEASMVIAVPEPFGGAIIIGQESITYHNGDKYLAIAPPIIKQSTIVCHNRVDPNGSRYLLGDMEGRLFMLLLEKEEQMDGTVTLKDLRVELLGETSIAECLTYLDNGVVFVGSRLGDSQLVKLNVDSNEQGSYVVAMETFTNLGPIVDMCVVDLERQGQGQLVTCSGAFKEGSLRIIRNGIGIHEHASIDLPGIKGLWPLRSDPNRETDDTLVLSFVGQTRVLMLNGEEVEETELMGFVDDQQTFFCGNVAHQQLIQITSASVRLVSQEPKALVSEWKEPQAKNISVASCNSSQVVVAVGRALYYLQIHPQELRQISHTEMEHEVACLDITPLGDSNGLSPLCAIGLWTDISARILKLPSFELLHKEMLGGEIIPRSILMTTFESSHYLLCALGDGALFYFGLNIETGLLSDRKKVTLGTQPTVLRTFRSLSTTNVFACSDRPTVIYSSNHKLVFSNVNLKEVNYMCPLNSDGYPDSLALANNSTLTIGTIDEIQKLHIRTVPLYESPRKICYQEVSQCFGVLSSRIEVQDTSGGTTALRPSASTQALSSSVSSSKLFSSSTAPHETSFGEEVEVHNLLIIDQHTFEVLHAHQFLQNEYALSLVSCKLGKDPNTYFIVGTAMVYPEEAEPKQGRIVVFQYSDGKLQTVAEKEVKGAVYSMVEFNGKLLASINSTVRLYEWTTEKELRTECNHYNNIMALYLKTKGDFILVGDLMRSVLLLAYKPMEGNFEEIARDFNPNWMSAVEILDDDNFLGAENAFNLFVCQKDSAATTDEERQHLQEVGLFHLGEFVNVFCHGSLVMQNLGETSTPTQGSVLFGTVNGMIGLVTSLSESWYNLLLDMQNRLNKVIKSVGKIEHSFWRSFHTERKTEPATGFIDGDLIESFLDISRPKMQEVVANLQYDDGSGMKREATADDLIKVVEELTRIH

For `C[C@H]1CN(Cc2ccn3ncc(N4CCC(=O)NC4=O)c3c2)CCN1C(=O)C1CCCC1` [Example 343, (S)-1-(5-((4-(cyclopentanecarbonyl)-3-methylpiperazin-1-yl)methyl)pyrazolo[1,5-a]pyridin-3-yl)dihydropyrimidine-2,4(1H,3H)-dione], the Dmax at 25 µM worked out at 46%, the remaining activity at 25 µM turned out to be 54% and the DC50 was 495 nM.

Regarding `C[C@H]1CN(CC2CCOCC2)CCN1Cc1ccn2ncc(N3CCC(=O)NC3=O)c2c1` [Example 223], the Dmax at 25 µM stood at 51%, the remaining activity at 25 µM was 49% and the DC50 worked out at 877 nM.

For `O=C1CCN(c2cnn3ccc(CC4(F)CCN(Cc5ccccc5)CC4)cc23)C(=O)N1` [Example 126, 1-(5-((1-benzyl-4-fluoropiperidin-4-yl)methyl)pyrazolo[1,5-a]pyridin-3-yl)dihydropyrimidine-2,4(1H,3H)-dione], the Dmax at 25 µM came to 35%, the remaining activity at 25 µM stood at 65% and the DC50 came to 290 nM.

Regarding `CCC(CC)N1CCC(Cc2ccn3ncc(N4CCC(=O)NC4=O)c3c2)CC1` [Example 20, 1-(5-((1-(pentan-3-yl)piperidin-4-yl)methyl)pyrazolo[1,5-a]pyridin-3-yl)dihydropyrimidine-2,4(1H,3H)-dione], the Dmax at 25 µM worked out at 79%, the remaining activity at 25 µM was determined as 21% and the DC50 came to 22 nM.

Take `O=C1CCN(c2cnn3ccc(CC4CCN(CC56CC7CC(CC(C7)C5)C6)CC4)cc23)C(=O)N1` [Example 117]: the Dmax at 25 µM amounted to 90%, the remaining activity at 25 µM is 10% and the DC50 was determined as 1 nM.

As for `C[C@@H]1C[C@H](Cc2ccn3ncc(N4CCC(=O)NC4=O)c3c2)CCN1CC1CCOCC1` [Example 75], the Dmax at 25 µM is 81%, the remaining activity at 25 µM was 19% and the DC50 was determined as 98 nM.

On to `CC(C)C(=O)N1CCN(Cc2ccn3ncc(N4CCC(=O)NC4=O)c3c2)C[C@@H]1C` [Example 341, (S)-1-(5-((4-isobutyryl-3-methylpiperazin-1-yl)methyl)pyrazolo[1,5-a]pyridin-3-yl)dihydropyrimidine-2,4(1H,3H)-dione], for which the Dmax at 25 µM is 30%, the remaining activity at 25 µM came out at 70% and the DC50 was found to be 799 nM.

In the case of `CC(C)S(=O)(=O)N1C[C@H]2C[C@@H]1CN2Cc1ccn2ncc(N3CCC(=O)NC3=O)c2c1` [Example 239, 1-(5-(((1R,4R)-5-(isopropylsulfonyl)-2,5-diazabicyclo[2.2.1]heptan-2-yl)methyl)pyrazolo[1,5-a]pyridin-3-yl)dihydropyrimidine-2,4(1H,3H)-dione], the Dmax at 25 µM is 0%, the remaining activity at 25 µM came out at 100% and the DC50 was above 25000 nM.

With `O=C1CCN(c2cnn3ccc(CC4CCN(Cc5cccc(F)c5)C4)cc23)C(=O)N1` (stereo not drawn) [Example 131], the Dmax at 25 µM was determined as 38%, the remaining activity at 25 µM was determined as 62% and the DC50 stood at 370 nM.

Regarding `CC(C)CN1CCN(Cc2ccn3ncc(-n4ccc(=O)[nH]c4=O)c3c2)C[C@@H]1C` [Example 357, (S)-1-(5-((4-isobutyl-3-methylpiperazin-1-yl)methyl)pyrazolo[1,5-a]pyridin-3-yl)pyrimidine-2,4(1H,3H)-dione], the Dmax at 25 µM was found to be 85%, the remaining activity at 25 µM came out at 15% and the DC50 is 124 nM.

In the case of `COCC(F)(F)CN1CCN(Cc2ccn3ncc(N4CCC(=O)NC4=O)c3c2)C[C@@H]1C` [Example 328, (S)-1-(5-((4-(2,2-difluoro-3-methoxypropyl)-3-methylpiperazin-1-yl)methyl)pyrazolo[1,5-a]pyridin-3-yl)dihydropyrimidine-2,4(1H,3H)-dione], the Dmax at 25 µM was found to be 52%, the remaining activity at 25 µM turned out to be 48% and the DC50 was 338 nM.

On to `C[C@H]1C[C@H](Cc2ccn3ncc(N4CCC(=O)NC4=O)c3c2)CCN1CC(F)F` [Example 274, 1-(5-(((2S,4R)-1-(2,2-difluoroethyl)-2-methylpiperidin-4-yl)methyl)pyrazolo[1,5-a]pyridin-3-yl)dihydropyrimidine-2,4(1H,3H)-dione], for which the Dmax at 25 µM worked out at 77%, the remaining activity at 25 µM turned out to be 23% and the DC50 is 32 nM.

Take `CC(C)C(C)N1CCC(Cc2ccn3ncc(N4CCC(=O)NC4=O)c3c2)CC1` (stereo not drawn) [Example 70, 1-(5-((1-(3-methylbutan-2-yl)piperidin-4-yl)methyl)pyrazolo[1,5-a]pyridin-3-yl)dihydropyrimidine-2,4(1H,3H)-dione]: the Dmax at 25 µM was 83%, the remaining activity at 25 µM was found to be 17% and the DC50 amounted to 21 nM.

Regarding `C[C@H]1C[C@H](Cc2ccn3ncc(N4CCC(=O)NC4=O)c3c2)CCN1CC1CCCC1` [Example 144], the Dmax at 25 µM was found to be 87%, the remaining activity at 25 µM came to 13% and the DC50 is 8 nM.

As for `C[C@H]1CN(Cc2ccn3ncc(N4CCC(=O)NC4=O)c3c2)C[C@H](C)N1CC1CCCCC1` [Example 258, 1-(5-(((3S,5S)-4-(cyclohexylmethyl)-3,5-dimethylpiperazin-1-yl)methyl)pyrazolo[1,5-a]pyridin-3-yl)dihydropyrimidine-2,4(1H,3H)-dione], the Dmax at 25 µM is 69%, the remaining activity at 25 µM came out at 31% and the DC50 came out at 148 nM.

Consider `C[C@H]1CC(F)(Cc2ccn3ncc(N4CCC(=O)NC4=O)c3c2)CCN1CC1CCC(F)(F)CC1` (single isomer, unassigned) [Example 308], for which the Dmax at 25 µM is 77%, the remaining activity at 25 µM turned out to be 23% and the DC50 amounted to 44 nM.

As to `O=C1CCN(c2cnn3ccc(CC4CCN(Cc5cncc(F)c5)CC4)cc23)C(=O)N1` [Example 33, 1-(5-((1-((5-fluoropyridin-3-yl)methyl)piperidin-4-yl)methyl)pyrazolo[1,5-a]pyridin-3-yl)dihydropyrimidine-2,4(1H,3H)-dione], the Dmax at 25 µM stood at 73%, the remaining activity at 25 µM worked out at 27% and the DC50 was 31 nM.

Consider `O=C1CCN(c2cnn3ccc(CN4CCN5CCC[C@H]5C4)cc23)C(=O)N1` [Example 260, (S)-1-(5-((hexahydropyrrolo[1,2-a]pyrazin-2(1H)-yl)methyl)pyrazolo[1,5-a]pyridin-3-yl)dihydropyrimidine-2,4(1H,3H)-dione], for which the Dmax at 25 µM worked out at 68%, the remaining activity at 25 µM was 32% and the DC50 came out at 796 nM.

For the compound `C[C@H]1C[C@H](Cc2ccn3ncc(N4CCC(=O)NC4=O)c3c2)CCN1CCC1CCOCC1` [Example 148], the Dmax at 25 µM came to 86%, the remaining activity at 25 µM was 14% and the DC50 turned out to be 63 nM.

On to `CC(C)N1CCN(Cc2ccn3ncc(N4CCC(=O)NC4=O)c3c2)CC1` [Example 166], for which the Dmax at 25 µM is 66%, the remaining activity at 25 µM was 34% and the DC50 came to 632 nM.

Consider `Cc1ccc(CN2CCC(Cc3ccn4ncc(N5CCC(=O)NC5=O)c4c3)CC2)cc1` [Example 47, 1-(5-((1-(4-methylbenzyl)piperidin-4-yl)methyl)pyrazolo[1,5-a]pyridin-3-yl)dihydropyrimidine-2,4(1H,3H)-dione], for which the Dmax at 25 µM worked out at 69%, the remaining activity at 25 µM stood at 31% and the DC50 was 157 nM.

For `O=C1CCN(c2cnn3ccc(CC4CCN(CC5CCOC5)CC4)cc23)C(=O)N1` (stereo not drawn) [Example 14, 1-(5-((1-((tetrahydrofuran-3-yl)methyl)piperidin-4-yl)methyl)pyrazolo[1,5-a]pyridin-3-yl)dihydropyrimidine-2,4(1H,3H)-dione], the Dmax at 25 µM was 84%, the remaining activity at 25 µM came to 16% and the DC50 came to 28 nM.

As for `CC(C)(CC1CCOCC1)N1CCC(Cc2ccn3ncc(N4CCC(=O)NC4=O)c3c2)CC1` [Example 137, 1-(5-((1-(2-methyl-1-(tetrahydro-2H-pyran-4-yl)propan-2-yl)piperidin-4-yl)methyl)pyrazolo[1,5-a]pyridin-3-yl)dihydropyrimidine-2,4(1H,3H)-dione], the Dmax at 25 µM came out at 77%, the remaining activity at 25 µM is 23% and the DC50 was 121 nM.

For `COC[C@H]1CN(Cc2ccn3ncc(N4CCC(=O)NC4=O)c3c2)CCN1CC(C)C` [Example 245, (R)-1-(5-((4-isobutyl-3-(methoxymethyl)piperazin-1-yl)methyl)pyrazolo[1,5-a]pyridin-3-yl)dihydropyrimidine-2,4(1H,3H)-dione], the Dmax at 25 µM turned out to be 52%, the remaining activity at 25 µM was 48% and the DC50 was determined as 351 nM.

Consider `O=C1CCN(c2cnn3ccc(CC4CCN(CC5CC5)CC4)cc23)C(=O)N1` [Example 5, 1-(5-((1-(cyclopropylmethyl)piperidin-4-yl)methyl)pyrazolo[1,5-a]pyridin-3-yl)dihydropyrimidine-2,4(1H,3H)-dione], for which the Dmax at 25 µM stood at 89%, the remaining activity at 25 µM was found to be 11% and the DC50 was 204 nM.

On to `C[C@H]1CN(Cc2ccn3ncc(N4CCC(=O)NC4=O)c3c2)CCN1C1CC2(C1)CN(S(C)(=O)=O)C2` [Example 337, (S)-1-(5-((3-methyl-4-(2-(methylsulfonyl)-2-azaspiro[3.3]heptan-6-yl)piperazin-1-yl)methyl)pyrazolo[1,5-a]pyridin-3-yl)dihydropyrimidine-2,4(1H,3H)-dione], for which the Dmax at 25 µM amounted to 83%, the remaining activity at 25 µM turned out to be 17% and the DC50 was found to be 399 nM.

Take `C[C@H]1CN(Cc2ccn3ncc(N4CCC(=O)NC4=O)c3c2)CCN1C1COC1` [Example 331]: the Dmax at 25 µM was determined as 76%, the remaining activity at 25 µM is 24% and the DC50 stood at 73 nM.
